Source: US4153724A, “Benzoyl phenoxy acetic acid derivatives” (Kaken Chemical Co., Ltd., priority 1976, dated 1979)
Read-outs that look alike come from different tables or passages of the source.

Tests used:
Rats with hyperlipidemia = assay: Test 2: antihyperlipidemic activity in rats with dietary hyperlipidemia; type: in vivo, Wister type male rats; conditions: 200 mg/kg oral, 4 days adm.
Experimental: The antihyperlipidemic activity in rats with dietary hyperlipidemia.
In the tests, Wister type male rats (weight: 140 g) were used in groups of 6 each.
A feed containing 2% of cholesterol, 1% of sodium cholate and 5% of cocconut oil was given for 4 days to cause hyperlipidemia.
Each active ingredient was suspended in a 1% aqueous solution of Tween 80 and the suspension was orally administrated in a dose of 100 mg/Kg or 200 mg/Kg once daily for 4 days starting with the supply of the cholesterol supplemented diet.
After 24 hours from the final administration, blood was sampled and the concentration of total cholesterols and the concentration of triglyceride were measured by the methods of Test 1.

Test 3: acute toxicity = conditions: mouse, in vivo
Experimental: In the acute toxicity tests, male mice (weight: 22 to 25 g) were used in groups of 10 each.
Eash active ingredient was dissolved in olive oil and the solution was orally administrated in a volume corresponding to the body weight.
LD50 was calculated by the area method from the mortal percent after 72 hours from the administration.
The compound numbers are the same with those of Tables 1 and 2.

Normal mice [1] = assay: Test 1: hypolipidemic activity in normal mice; type: in vivo, ICR type male mice; conditions: Mus musculus, 24 h, Table 4, reference compounds (IV), 1 time adm.
[2] = found by the administration of ethyl-α-(p-chlorophenoxy)-isobutyrate; cited from earlier work
Normal mice [3] = assay: Test 1: hypolipidemic activity in normal mice; type: in vivo, ICR type male mice; conditions: 200 mg/kg oral, 1 time adm., 24 h
Experimental: The hypolipidemic activity in normal mice (lowering effect of normal blood lipid level).
In the tests, ICR type male mice (weight: about 35 g) were used in groups of 6 each.
Each active ingredient was suspended in a 1% aqueous solution of Tween-80 (polyoxyethylene sorbitane monoalkylate) (Atlas Co.) and the suspension was orally administrated in a dose of 200 mg/Kg.
After 24 hours from the administration, blood was sampled and the concentration of total cholesterols in blood-plasma was measured by the method described in Clinical chemistry Vol. 22 page 393 (1968) and the concentraton of triglyceride (neutral fat) was measured by Fletcher method (Clinica Chimica Acta) Vol. 10 page 451 (1964).
As the active ingredients, the compounds (I) and ethyl-α-(p-chlorophenoxy)-isobutylate having the formula [drawing 17] were used.
The same tests for hypolipidemic activity (lowering of blood lipid level) were carried out by using the reference compounds (IV).

[4] = series (b), comparison with compounds 2-12 (P-control 92.0, Normal 37.6)
[5] = series (b), comparison with compounds 2-12 (P-control 260.0, Normal 57.2)
[6] = Table 3, male mice, oral in olive oil, 72 hours, read-out: LD50 oral
[7] = series (a), comparison with compound 1 (P-control 141.9)
[8] = series (a), comparison with compound 1 (P-control 302.4)
[9] = read-out: Total cholesterol (lowering of blood lipid level)
[10] = read-out: Triglyceride (lowering of blood lipid level)
[11] = series (a), comparison with compound 1 (Normal 62.6)
[12] = series (a), comparison with compound 1 (Normal 83.6)
[13] = series (b), comparison with compounds 2-12 (Normal 52.0)
[14] = series (b), comparison with compounds 2-12 (Normal 69.3)
[15] = po, Table 4, reference compounds (IV), read-out: LD50

## CCOC(=O)C(Oc1ccc(C(=O)c2ccc(F)cc2)cc1)C1CCCCC1 (centres unmarked) [Invention Compound 2, Ethyl-2-[p-(4-fluorobenzoyl)-phenoxy]-cyclohexyl acetate]
Rats with hyperlipidemia; [4]
  Decrease of triglyceride: 88.5 ± 12.3 mg/dL
Rats with hyperlipidemia; [5]
  Serum total cholesterol concentration: 215.3 ± 6.7 mg/dL
Test 3: acute toxicity; [6]
  LD50 at 72 h: 1000 mg/kg

## CCOC(=O)C(C)(C)Oc1ccc(Cl)cc1 [***, ethyl-α-(p-chlorophenoxy)-isobutylate, reference compound]
Rats with hyperlipidemia; [7]
  Decrease of triglyceride: 80.9 ± 17.8 mg/dL
Rats with hyperlipidemia; [8]
  Serum total cholesterol concentration: 285.5 ± 25.3 mg/dL
Rats with hyperlipidemia; [4]
  Decrease of triglyceride: 62.5 ± 9.5 mg/dL
Rats with hyperlipidemia; [5]
  Serum total cholesterol concentration: 258.5 ± 16.0 mg/dL
Test 3: acute toxicity; [6]
  LD50 at 72 h: 1500 mg/kg
Normal mice [1]; [9]
  inhibition in vivo at 200 mg/kg: 15%
Normal mice [1]; [10]
  inhibition in vivo at 200 mg/kg: 10%
[2]
  hepatic disease (hepatitis): found
Normal mice [3]; [11]
  Decrease of triglyceride: 46.6 ± 7.3 mg/dL
Normal mice [3]; [12]
  Decrease of cholesterol: 69.0 ± 5.3 mg/dL
Normal mice [3]; [13]
  Decrease of triglyceride: 46.8 ± 3.5 mg/dL
Normal mice [3]; [14]
  Decrease of cholesterol: 55.4 ± 3.1 mg/dL

## CCOC(=O)C(Oc1ccc(C(=O)c2ccc(C)cc2)cc1)C1CCCCC1 (centres unmarked) [Invention Compound 9, Ethyl 2-[p-(4-methylbenzoyl)-phenoxy]-cyclohexyl acetate]
Rats with hyperlipidemia; [4]
  Decrease of triglyceride: 58.5 ± 6.7 mg/dL
Rats with hyperlipidemia; [5]
  Serum total cholesterol concentration: 188.7 ± 18.4 mg/dL
Test 3: acute toxicity; [6]
  LD50 at 72 h: 3500 mg/kg
Normal mice [3]; [13]
  Decrease of triglyceride: 56.9 ± 6.1 mg/dL
Normal mice [3]; [14]
  Decrease of cholesterol: 59.1 ± 3.4 mg/dL

## CCOC(=O)C(Oc1ccc(C(=O)c2ccccc2C)cc1)C1CCCCC1 (centres unmarked) [Invention Compound 11]
Rats with hyperlipidemia; [4]
  Decrease of triglyceride: 89.4 ± 7.7 mg/dL
Rats with hyperlipidemia; [5]
  Serum total cholesterol concentration: 203.5 ± 12.1 mg/dL
Test 3: acute toxicity; [6]
  LD50 at 72 h: 700 mg/kg

## CCOC(=O)C(Oc1ccc(C(=O)c2ccc(OC)cc2)cc1)C1CCCCC1 (centres unmarked) [Invention Compound 4]
Rats with hyperlipidemia; [4]
  Decrease of triglyceride: 88.7 ± 8.9 mg/dL
Rats with hyperlipidemia; [5]
  Serum total cholesterol concentration: 187.0 ± 18.1 mg/dL
Test 3: acute toxicity; [6]
  LD50 at 72 h: 2500 mg/kg
Normal mice [3]; [13]
  Decrease of triglyceride: 38.2 ± 2.5 mg/dL
Normal mice [3]; [14]
  Decrease of cholesterol: 51.9 ± 2.6 mg/dL

## CCOC(=O)C(Oc1ccc(C(=O)c2ccccc2F)cc1)C1CCCCC1 (centres unmarked) [Invention Compound 6]
Rats with hyperlipidemia; [4]
  Decrease of triglyceride: 89.2 ± 15.6 mg/dL
Rats with hyperlipidemia; [5]
  Serum total cholesterol concentration: 243.0 ± 6.1 mg/dL
Test 3: acute toxicity; [6]
  LD50 at 72 h: 1000 mg/kg

## CCOC(=O)C(Oc1ccc(C(=O)c2ccc(Cl)cc2)cc1)c1ccccc1 (centres unmarked) [compound 11, Ethyl 2-[p-(4-chlorobenzoyl)-phenoxy]phenyl acetate]
Test 3: acute toxicity; [15]
  LD50 at 72 h: 3000 mg/kg
Normal mice [1]; [9]
  inhibition in vivo at 200 mg/kg: 24%
Normal mice [1]; [10]
  inhibition in vivo at 200 mg/kg: 52%

## Cc1ccccc1C(=O)c1ccc(OC(C(=O)O)c2ccccc2)cc1 (centres unmarked) [compound 14, 2-[P-(2-methylbenzoyl)-phenoxy]phenyl acetic acid]
Normal mice [1]; [9]
  inhibition in vivo at 200 mg/kg: 21%
Normal mice [1]; [10]
  inhibition in vivo at 200 mg/kg: 2%

## CCOC(=O)C(Oc1ccc(C(=O)c2ccc(Cl)cc2)cc1)C1CCCCC1 (centres unmarked) [Invention Compound 1, Ethyl 2-[p-(4-chlorobenzoyl)-phenoxy]-cyclohexyl acetate]
Rats with hyperlipidemia; [7]
  Decrease of triglyceride: 69.7 ± 13.8 mg/dL
Rats with hyperlipidemia; [8]
  Serum total cholesterol concentration: 126.5 ± 8.1 mg/dL
Test 3: acute toxicity; [6]
  LD50 at 72 h: 2500 mg/kg
Normal mice [3]; [11]
  Decrease of triglyceride: 52.2 ± 7.6 mg/dL
Normal mice [3]; [12]
  Decrease of cholesterol: 59.4 ± 4.8 mg/dL

## CCOC(=O)C(Oc1ccc(C(=O)c2ccc(F)cc2)cc1)c1ccccc1 (centres unmarked) [compound 5]
Test 3: acute toxicity; [15]
  LD50 at 72 h: 1500 mg/kg
Normal mice [1]; [9]
  inhibition in vivo at 200 mg/kg: 21%
Normal mice [1]; [10]
  inhibition in vivo at 200 mg/kg: 1%

## CCOC(=O)C(Oc1ccc(C(=O)c2ccccc2Cl)cc1)C1CCCCC1 (centres unmarked) [Invention Compound 8]
Rats with hyperlipidemia; [4]
  Decrease of triglyceride: 75.6 ± 8.3 mg/dL
Rats with hyperlipidemia; [5]
  Serum total cholesterol concentration: 185.4 ± 7.1 mg/dL
Test 3: acute toxicity; [6]
  LD50 at 72 h: 1000 mg/kg

## CCOC(=O)C(Oc1ccc(C(=O)c2ccccc2F)cc1)c1ccccc1 (centres unmarked) [compound 1]
Test 3: acute toxicity; [15]
  LD50 at 72 h: 1500 mg/kg
Normal mice [1]; [9]
  inhibition in vivo at 200 mg/kg: 18%
Normal mice [1]; [10]
  inhibition in vivo at 200 mg/kg: 36%

## O=C(c1ccccc1)c1ccc(OC(C(=O)O)c2ccccc2)cc1 (centres unmarked) [compound 20]
Test 3: acute toxicity; [15]
  LD50 at 72 h: > 3000 mg/kg
Normal mice [1]; [9]
  inhibition in vivo at 200 mg/kg: 19%
Normal mice [1]; [10]
  inhibition in vivo at 200 mg/kg: 7%

## CCOC(=O)C(Oc1ccc(C(=O)c2ccccc2Cl)cc1)c1ccccc1 (centres unmarked) [compound 7, Ethyl 2-[p-(2-chlorobenzoyl)-phenoxy]phenyl acetate]
Test 3: acute toxicity; [15]
  LD50 at 72 h: > 10000 mg/kg
Normal mice [1]; [9]
  inhibition in vivo at 200 mg/kg: 16%
Normal mice [1]; [10]
  inhibition in vivo at 200 mg/kg: 8%

## CCOC(=O)C(Oc1ccc(C(=O)c2cccc(Cl)c2)cc1)C1CCCCC1 (centres unmarked) [Invention Compound 7, Ethyl 2-[p-(3-chlorobenzoyl)-phenoxy]-cyclohexyl acetate]
Rats with hyperlipidemia; [4]
  Decrease of triglyceride: 52.1 ± 9.0 mg/dL
Rats with hyperlipidemia; [5]
  Serum total cholesterol concentration: 123.8 ± 9.1 mg/dL
Test 3: acute toxicity; [6]
  LD50 at 72 h: 2500 mg/kg
Normal mice [3]; [13]
  Decrease of triglyceride: 45.5 ± 5.4 mg/dL
Normal mice [3]; [14]
  Decrease of cholesterol: 56.4 ± 5.1 mg/dL

## CCOC(=O)C(Oc1ccc(C(=O)c2cccc(F)c2)cc1)c1ccccc1 (centres unmarked) [compound 3]
Test 3: acute toxicity; [15]
  LD50 at 72 h: 2000 mg/kg
Normal mice [1]; [9]
  inhibition in vivo at 200 mg/kg: 16%
Normal mice [1]; [10]
  inhibition in vivo at 200 mg/kg: 19%

## CCOC(=O)C(Oc1ccc(C(=O)c2ccccc2C)cc1)c1ccccc1 (centres unmarked) [compound 13, ethyl 2-[p-(2-methylbenzoyl)-phenoxy] phenyl acetate]
Test 3: acute toxicity; [15]
  LD50 at 72 h: > 2000 mg/kg
Normal mice [1]; [9]
  inhibition in vivo at 200 mg/kg: 27.7%
Normal mice [1]; [10]
  inhibition in vivo at 200 mg/kg: 41.9%

## CCOC(=O)C(Oc1ccc(C(=O)c2cccc(C)c2)cc1)C1CCCCC1 (centres unmarked) [Invention Compound 10]
Rats with hyperlipidemia; [4]
  Decrease of triglyceride: 73.6 ± 10.0 mg/dL
Rats with hyperlipidemia; [5]
  Serum total cholesterol concentration: 196.1 ± 13.2 mg/dL
Test 3: acute toxicity; [6]
  LD50 at 72 h: 3000 mg/kg

## CCOC(=O)C(Oc1ccc(C(=O)c2cccc(F)c2)cc1)C1CCCCC1 (centres unmarked) [Invention Compound 5]
Rats with hyperlipidemia; [4]
  Decrease of triglyceride: 90.3 ± 16.8 mg/dL
Rats with hyperlipidemia; [5]
  Serum total cholesterol concentration: 147.5 ± 8.3 mg/dL
Test 3: acute toxicity; [6]
  LD50 at 72 h: 3500 mg/kg
Normal mice [3]; [13]
  Decrease of triglyceride: 60.0 ± 4.2 mg/dL
Normal mice [3]; [14]
  Decrease of cholesterol: 54.5 ± 2.6 mg/dL

## CCOC(=O)C(Oc1ccc(C(=O)c2ccccc2)cc1)C1CCCCC1 (centres unmarked) [Invention Compound 3]
Rats with hyperlipidemia; [4]
  Decrease of triglyceride: 81.6 ± 7.3 mg/dL
Rats with hyperlipidemia; [5]
  Serum total cholesterol concentration: 211.0 ± 5.5 mg/dL
Test 3: acute toxicity; [6]
  LD50 at 72 h: 1000 mg/kg
Normal mice [3]; [13]
  Decrease of triglyceride: 60.1 ± 2.8 mg/dL
Normal mice [3]; [14]
  Decrease of cholesterol: 66.6 ± 1.9 mg/dL
